In article PMC4880513 (Journal of natural products, 2015):
Entries after “also recorded” stand apart in the source; their conditions may differ. Like-named read-outs stand apart in the source and are kept apart here. Marks after values point to notes of the source that are not given here.

Columns and labels:
Male Swiss Webster mice [1] = test: mouse tetrad assay: overall cannabimimetic action; details: ip, result in words
Male Swiss Webster mice [2] = test: mouse tetrad assay: locomotor activity; details: for hypolocomotive activity: ip, across doses, result in words; for locomotor activity: total photobeam interruptions, last 10 min of 30 min, mean ± SEM
CB2 receptor = CB2 receptor (Homo sapiens, UniProt P34972); test: functional assays at CB2 receptor; type: biochemical; details: result in words
CB1 receptor = CB1 receptor (Homo sapiens, UniProt P21554); test: functional assays at CB1 receptor; type: biochemical; details: result in words
[3] = molecular target: full-length human cannabinoid-1 receptor (Homo sapiens, UniProt P21554); details: radioligand binding
[4] = molecular target: full-length human cannabinoid-2 receptor (Homo sapiens, UniProt P34972); test: CB2 receptor radioligand binding assay
Male Swiss Webster mice [5] = test: mouse tetrad assay: rectal temperature; details: difference between basal and postinjection temperatures, mean ± SEM
Male Swiss Webster mice [6] = test: mouse tetrad assay: catalepsy; details: latency to drop, cutoff 180 s, mean ± SEM
Male Swiss Webster mice [7] = test: mouse tetrad assay: tail-flick latency; details: cutoff 15 s, mean ± SEM
Male Swiss Webster mice [8] = test: mouse tetrad assay: hot-plate latency; details: cutoff 45 s, mean ± SEM

Sequence of CB1 receptor (P21554 whole entry): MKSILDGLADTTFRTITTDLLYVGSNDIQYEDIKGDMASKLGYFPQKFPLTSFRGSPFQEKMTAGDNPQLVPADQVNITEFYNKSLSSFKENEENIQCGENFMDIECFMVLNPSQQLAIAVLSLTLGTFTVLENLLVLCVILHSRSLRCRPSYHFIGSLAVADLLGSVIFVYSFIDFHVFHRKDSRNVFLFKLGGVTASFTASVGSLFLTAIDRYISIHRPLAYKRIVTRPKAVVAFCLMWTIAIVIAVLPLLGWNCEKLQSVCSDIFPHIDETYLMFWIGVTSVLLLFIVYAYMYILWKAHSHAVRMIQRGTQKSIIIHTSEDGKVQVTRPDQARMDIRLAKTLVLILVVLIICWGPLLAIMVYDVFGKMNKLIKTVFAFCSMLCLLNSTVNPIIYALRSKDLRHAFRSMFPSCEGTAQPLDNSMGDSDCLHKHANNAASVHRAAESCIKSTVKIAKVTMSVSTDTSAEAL
Sequence of full-length human cannabinoid-1 receptor (P21554 whole entry): as above
Sequence of CB2 receptor (P34972 whole entry): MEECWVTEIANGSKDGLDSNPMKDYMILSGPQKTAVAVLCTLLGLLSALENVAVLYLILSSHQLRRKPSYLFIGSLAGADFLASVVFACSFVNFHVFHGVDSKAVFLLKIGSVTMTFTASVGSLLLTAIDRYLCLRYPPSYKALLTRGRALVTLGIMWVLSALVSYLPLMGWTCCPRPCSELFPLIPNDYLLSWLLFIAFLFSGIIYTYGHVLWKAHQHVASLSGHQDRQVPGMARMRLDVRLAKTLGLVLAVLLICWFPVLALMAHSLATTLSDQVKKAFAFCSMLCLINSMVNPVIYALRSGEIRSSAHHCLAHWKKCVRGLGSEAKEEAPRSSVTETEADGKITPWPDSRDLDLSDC
Sequence of full-length human cannabinoid-2 receptor (P34972 whole entry): as above

Compound: CCCCCc1cc(O)c2c(c1)OC(C)(C)[C@@H]1C[C@H](O)C(C)=C[C@@H]21 [Compound 1, 8α-hydroxy-Δ^9-tetrahydrocannabinol]
- cannabimimetic activity in the mouse tetrad assay (Male Swiss Webster mice [1]; dose of 20 mg/kg): did not exhibit typical cannabimimetic activity

Compound: CCCCCc1cc(O)c2c(c1)OC(C)(C)[C@@H]1C[C@@H](O)C(C)=C[C@@H]21 [Compound 2, 8β-hydroxy-Δ^9-tetrahydrocannabinol]
- cannabimimetic-like action in the mouse tetrad assay (Male Swiss Webster mice [1]; at the doses tested): lacked any cannabimimietic activity
- cannabimimetic-like action in the mouse tetrad assay (Male Swiss Webster mice [1]; doses up to 20 mg/kg): lacked typical cannabimimetic-like action
- hypolocomotive activity (Male Swiss Webster mice [2]): dose-dependent hypolocomotive effect only
- hypolocomotive activity (Male Swiss Webster mice [2]; listed as compound 2): significant dose-dependent hypolocomotive activity

Compound: CCCCCc1cc(O)c2c(c1)OC(C)(C)[C@@H]1CC=C(C)[C@H](O)[C@@H]21 [Compound 3, 10α-hydroxy-Δ^8-tetrahydrocannabinol]
- functional activity at CB2 receptor (CB2 receptor): partial agonist
- cannabimimetic-like action in the mouse tetrad assay (Male Swiss Webster mice [1]; at the doses tested): most potent cannabimimetic-like actions; also recorded: typical cannabimimetic actions
- functional activity at CB1 receptor (CB1 receptor): partial agonist
- functional activity at CB1 receptor (CB1 receptor; listed as compound 3): partial CB1 agonist
- binding affinity (nM) CB1 [3]: nearly as tightly as THC
- binding affinity (nM) CB1 ([3]; listed as compound 3): highest affinity
- binding affinity (nM) CB2 [4]: nearly as tightly as THC

Compound: CCCCCc1cc(O)c2c(c1)OC(C)(C)[C@@H]1CC=C(C)[C@@H](O)[C@@H]21 [Compound 4, 10β-hydroxy-Δ^8-tetrahydrocannabinol]
- effects in the mouse tetrad assay (Male Swiss Webster mice [1]; 40 mg/kg (highest tested dose), 40 mg/kg): hypothermic and antinociceptive activity
- cannabimimetic-like action in the mouse tetrad assay (Male Swiss Webster mice [1]; at the doses tested): partial cannabimimetic action

Compound: CCCCCc1cc(O)c2c(c1)OC(C)(C)[C@@H]1CC[C@@]3(C)O[C@H]3[C@@H]21 [Compound 6, 9β,10β-epoxyhexahydrocannabinol]
- cannabimimetic-like action in the mouse tetrad assay (Male Swiss Webster mice [1]; at the doses tested): most potent cannabimimetic-like actions

Compound: CCCCCc1cc(O)c2c(c1)OC(C)(C)[C@@H]1CC=C(C)C[C@@H]21 [Δ^8-THC, Δ^8-tetrahydrocannabinol]
- decrease in rectal temperature (°C) (Male Swiss Webster mice [5]; 5 mg/kg ip): 0.12 ± 0.09 °C
- decrease in rectal temperature (°C) (Male Swiss Webster mice [5]; 20 mg/kg ip): 1.96 ± 0.37 ^a °C

Compound: (−)-trans-Δ^9-tetrahydrocannabinol [Δ^9-THC]
- decrease in rectal temperature (°C) (Male Swiss Webster mice [5]; 10 mg/kg ip): 2.05 ± 0.25 °C
- decrease in rectal temperature (°C) (Male Swiss Webster mice [5]; 20 mg/kg ip): 4.25 ± 0.78 ^c °C
- decrease in rectal temperature (°C) (Male Swiss Webster mice [5]; 40 mg/kg ip): 4.80 ± 0.28 ^c °C
- catalepsy latency (Male Swiss Webster mice [6]; 10 mg/kg ip): 14.4 ± 4.16 s
- catalepsy latency (s) (Male Swiss Webster mice [6]; 20 mg/kg ip): 47.9 ± 20.04 ^b s
- catalepsy latency (s) (Male Swiss Webster mice [6]; 40 mg/kg ip): 37.7 ± 14.64 ^a s
- tail-flick latency (% MPE) (Male Swiss Webster mice [7]; 10 mg/kg ip): 6.52 ± 2.00 % MPE
- tail-flick latency (% MPE) (Male Swiss Webster mice [7]; 20 mg/kg ip): 42.21 ± 17.04 ^b % MPE
- tail-flick latency (% MPE) (Male Swiss Webster mice [7]; 40 mg/kg ip): 51.96 ± 13.22 ^c % MPE
- locomotor activity (Male Swiss Webster mice [2]; 10 mg/kg ip): 190.9 ± 33.8 ^c
- locomotor activity (Male Swiss Webster mice [2]; 20 mg/kg ip): 276.2 ± 52.6 ^c
- locomotor activity (Male Swiss Webster mice [2]; 40 mg/kg ip): 194.0 ± 49.2 ^c
- hot-plate latency (% MPE) (Male Swiss Webster mice [8]; 10 mg/kg ip): 29.04 ± 5.37 ^c % MPE
- hot-plate latency (% MPE) (Male Swiss Webster mice [8]; 20 mg/kg ip): 46.85 ± 9.08 ^c % MPE
- hot-plate latency (% MPE) (Male Swiss Webster mice [8]; 40 mg/kg ip): 38.18 ± 4.05 ^c % MPE
